Results taken from US20240398868A1 (GEL4MED, INC., priority 2020, published 2024).

Assay: Net charge and isoelectric point of peptide
Assay type: physicochemical
Settings: pH 7
Description: The peptide may be purified. For example, the peptide may be lyophilized. […] Other peptides are within the scope of the disclosure.
Exemplary peptides having a charge of +5 to +9 include […](d)[…], […](d)[…], and […](d)[…]. In other embodiments, the purified peptide may be substantially neutral. […] Net charge may be selected by peptide design. Design of electrostatic charge in the peptide hydrogel may allow control of charge interaction with cell membrane and proteins.

## VEVSVSVEV(d)PPTEVSVEVEV
  net charge: net negative charge
